Laboratory results: patent US20250312323A1 (Cavion, Inc., priority 2018, published 2025)
Entries after “also recorded” stand apart in the source; their conditions may differ.

Columns and labels:
[1] = tested on: patients with essential tremor; experiment: T-CALM: TETRAS activities of daily living subscale; assay type: in vivo, human; conditions: for TETRAS-ADL Score change from baseline, Median (minimum, maximum): Day 15, post-hoc
Experimental: The sum of the individual scores provides the overall score, ranging from 0 to 48. The complete TETRAS ADL Subscale is as follows.
Analyses of the TETRAS-ADL was conducted using the same type of ANCOVA model as described for the TETRAS-PS, using two-sided tests at the alpha=0.05 level of significance (FIG. 2 and Table 2).
Both sets of scores were statistically analyzed.

[2] = tested on: patients with essential tremor; experiment: T-CALM: treatment-emergent adverse events, discontinuations, dosage reductions; assay type: in vivo, human
Experimental: T-CALM employed the following dose titration scheme: Week 1 at 4 mg BID (8 mg/day), Week 2 at 8 mg BID (16 mg/day) and Weeks 3 & 4 at 10 mg BID (20 mg/day). […] Adverse Events were coded using MedDRA V20.0. Only treatment emergent adverse events with an onset date and time after the initiation of study drug until 30 days after discontinuation of drug were reported. For subjects who experience the same coded event more than once, a single event was presented. Adverse events were attributed to a study week based on the onset date, i.e. events that started on or after Visit 1 and prior to Visit 2 were classified as Study Week 1.
Adverse events are characterized by maximum severity, drug-related adverse events, serious adverse events and adverse events leading to discontinuation of study.
Safety procedures involved collection of all TEAEs (treatment-emergent adverse events) coded into the Medical Dictionary for Regulatory Activities (MedDRA) version 20. Adverse events were classified by maximum severity, drug-related adverse events, serious adverse events, and adverse events leading to patient discontinuation.

[3] = Day 15, change from baseline, N = 39
[4] = Day 28, change from baseline, N = 37
[5] = N = 48, inadequate drug supply at Visit 4

CC(C)c1ccc(CC(=O)N[C@H](C)c2ccc(OCC(F)(F)F)cn2)cc1 [CX-8998] was tested, and the “Subjects with improvement of at least 5 points by TETRAS-ADL score, number” value ([1]; Day 15, N 39) was 18, the “TETRAS-ADL Score, subjects with 0 change, n (%)” value [1, 3] was 2 (5.1%) and the “TETRAS-ADL Score, subjects with >0 to 1 point improvement, n (%)” value [1, 3] was 5 (12.8%). For the same molecule, the “TETRAS-ADL Score, subjects with >0 to 1 point worsening, n (%)” value [1, 3] was 1 (2.6%), the “TETRAS-ADL Score, subjects with >1 to 2.5 point improvement, n (%)” value [1, 3] was 2 (5.1%) and the “TETRAS-ADL Score, subjects with >1 to 2.5 point worsening, n (%)” value [1, 3] was 3 (7.7%). For the same molecule, the “TETRAS-ADL Score, subjects with >2.5 to 5 point improvement, n (%)” value [1, 3] was 7 (17.9%), the “TETRAS-ADL Score, subjects with >2.5 to 5 point worsening, n (%)” value [1, 3] was 3 (7.7%) and the “TETRAS-ADL Score, subjects with >5 to 10 point improvement, n (%)” value [1, 3] was 11 (28.2%). For the same molecule, the “TETRAS-ADL Score, subjects with >5 to 10 point worsening, n (%)” value [1, 3] was 0, the “TETRAS-ADL Score, subjects with >10 point improvement, n (%)” value [1, 3] was 5 (12.8%) and the “TETRAS-ADL Score, subjects with >10 point worsening, n (%)” value [1, 3] was 0. For the same molecule, the “TETRAS-ADL Score change from baseline, Median (minimum, maximum)” value ([1]; patients Minimally Improved by CGI-I) was −2.0 (−11, 3), the “TETRAS-ADL Score change from baseline, Median (minimum, maximum)” value ([1]; patients Minimally Improved by PGIC) was −4.0 (−13, 4) and the “Subjects with improvement of at least 5 points by TETRAS-ADL score, number” value ([1]; Day 28, N 37) was 11. The “TETRAS-ADL Score, subjects with 0 change, n (%)” value [1, 4] was 5 (13.5%), the “TETRAS-ADL Score, subjects with >0 to 1 point improvement, n (%)” value [1, 4] was 2 (5.4%) and the “TETRAS-ADL Score, subjects with >0 to 1 point worsening, n (%)” value [1, 4] was 3 (8.1%). For the same molecule, the “TETRAS-ADL Score, subjects with >1 to 2.5 point improvement, n (%)” value [1, 4] was 3 (8.1%), the “TETRAS-ADL Score, subjects with >1 to 2.5 point worsening, n (%)” value [1, 4] was 3 (8.1%) and the “TETRAS-ADL Score, subjects with >2.5 to 5 point improvement, n (%)” value [1, 4] was 7 (18.9%). The “TETRAS-ADL Score, subjects with >2.5 to 5 point worsening, n (%)” value [1, 4] was 3 (8.1%), the “TETRAS-ADL Score, subjects with >5 to 10 point improvement, n (%)” value [1, 4] was 6 (16.2) and the “TETRAS-ADL Score, subjects with >5 to 10 point worsening, n (%)” value [1, 4] was 0. The “TETRAS-ADL Score, subjects with >10 point improvement, n (%)” value [1, 4] was 5 (13.5%), the “TETRAS-ADL Score, subjects with >10 point worsening, n (%)” value [1, 4] was 0 and the “Discontinuation due to Nervous System Disorders, subjects, percent” value ([2]; N = 48) was “(8%)”. For the same molecule, the “Discontinuation due to Psychiatric Disorders, subjects, number” value ([2]; N = 48) was 4, the “Discontinuation due to Psychiatric Disorders, subjects, percent” value ([2]; N = 48) was “(8%)” and the “Dosage reduced during study, subjects, percent” value ([2]; N = 48) was “(8%)”. The “Dosage reduction due to adverse event, subjects, number” value ([2]; N = 48) was 3, the “Dosage reduction due to adverse event, subjects, percent” value ([2]; N = 48) was “(6%)” and the “Subjects with at least 1 event leading to discontinuation, number” value ([2]; N = 48) was 8. The “Subjects with at least 1 event leading to discontinuation, percent” value ([2]; N = 48) was “(17%)”, the “Dosage reduction due to other reasons, subjects, number” value [2, 5] was 1 and the “Dosage reduction due to other reasons, subjects, percent” value [2, 5] was “(2%)^3”. For the same molecule, the “TEAE Ear and Labyrinth Disorders (system organ class), subjects, number (%)” value ([2]; Safety Analysis Set, n = 48) was 2 (4%), the “TEAE Gastrointestinal Disorders (system organ class), subjects, number (%)” value ([2]; Safety Analysis Set, n = 48) was 9 (19%) and the “TEAE Infections and Infestations (system organ class), subjects, number (%)” value ([2]; Safety Analysis Set, n = 48) was 4 (8%). For the same molecule, the “TEAE Nervous System Disorders (system organ class), subjects, number (%)” value ([2]; Safety Analysis Set, n = 48) was 20 (42%), the “TEAE Psychiatric Disorders (system organ class), subjects, number (%)” value ([2]; Safety Analysis Set, n = 48) was 12 (52%) and the “Dosage reduction due to TEAEs, patients” value ([2]; T-CALM) was 6%. For the same molecule, the “Serious adverse events (alcohol withdrawal syndrome, major depression, suicidal ideation), deemed unrelated to study drug” value ([2]; T-CALM) was “one patient”, the “patients with at least 1 TEAE” value ([2]; T-CALM) was 58% and the “Discontinuation due to adverse events (TEAEs), patients n (%)” value ([2]; T-CALM, N=48) was 8 (17%). The “TEAE Abnormal dreams, n (%)” value ([2]; T-CALM, n = 48) was 2 (4%), the “TEAE Disturbance in attention, n (%)” value ([2]; T-CALM, n = 48) was 2 (4%) and the “TEAE Dizziness, n (%)” value ([2]; T-CALM, n = 48) was 10 (21%). The “TEAE Dry mouth, n (%)” value ([2]; T-CALM, n = 48) was 2 (4%), the “TEAE Dysgeusia, n (%)” value ([2]; T-CALM, n = 48) was 2 (4%) and the “TEAE Ear and Labyrinth Disorders, n (%)” value ([2]; T-CALM, n = 48) was 2 (4%). The “TEAE Euphoric mood, n (%)” value ([2]; T-CALM, n = 48) was 3 (6%), the “TEAE Gastrointestinal Disorders, n (%)” value ([2]; T-CALM, n = 48) was 9 (19%) and the “TEAE Hallucination, n (%)” value ([2]; T-CALM, n = 48) was 2 (4%). The “TEAE Headache, n (%)” value ([2]; T-CALM, n = 48) was 4 (8%), the “TEAE Hypesthesia, n (%)” value ([2]; T-CALM, n = 48) was 0 and the “TEAE Infections and Infestations, n (%)” value ([2]; T-CALM, n = 48) was 4 (8%). The “TEAE Insomnia, n (%)” value ([2]; T-CALM, n = 48) was 3 (6%), the “TEAE Nausea, n (%)” value ([2]; T-CALM, n = 48) was 1 (2%) and the “TEAE Nervous System Disorders, n (%)” value ([2]; T-CALM, n = 48) was 20 (42%). For the same molecule, the “TEAE Paraesthesia, n (%)” value ([2]; T-CALM, n = 48) was 2 (4%), the “TEAE Somnolence, n (%)” value ([2]; T-CALM, n = 48) was 1 (2%) and the “TEAE Tinnitus, n (%)” value ([2]; T-CALM, n = 48) was 2 (4%). For the same molecule, the “TEAE Urinary Tract Infection, n (%)” value ([2]; T-CALM, n = 48) was 2 (4%), the “TEAE Vomiting, n (%)” value ([2]; T-CALM, n = 48) was 0 and the “safety and tolerability in ET patients” value ([2]; T-CALM, up to 10 mg BID) was “safe and well tolerated”. For the same molecule, the “Adverse Event (MedDRA Preferred Term) leading to dosage reduction” value ([2]; individual subjects 26-001 (10 to 8 mg BID), 31-023 (8 to 4 mg BID), 33-004 (4 to 2 mg BID), one line each, considered related to study drug) was “Anxiety; also recorded: Electrocardiogram; also recorded: Headache”, the “AE Any Event, percent of subjects” value ([2]; onset in study week 1) was “(40%)” and the “AE Central Nervous System Disorders, number of subjects” value ([2]; onset in study week 1) was 16. For the same molecule, the “AE Central Nervous System Disorders, percent of subjects” value ([2]; onset in study week 1) was “(33%)”, the “AE Ear and Labyrinth Disorders, number of subjects” value ([2]; onset in study week 1) was 2 and the “AE Ear and Labyrinth Disorders, percent of subjects” value ([2]; onset in study week 1) was “(4%)”. For the same molecule, the “AE Eye Disorders, number of subjects” value ([2]; onset in study week 1) was 1, the “AE Eye Disorders, percent of subjects” value ([2]; onset in study week 1) was “(2%)” and the “AE Gastrointestinal Disorders, number of subjects” value ([2]; onset in study week 1) was 7. For the same molecule, the “AE Gastrointestinal Disorders, percent of subjects” value ([2]; onset in study week 1) was “(15%)”, the “AE Infections and Infestations, number of subjects” value ([2]; onset in study week 1) was 0 and the “AE Injury, Poisoning and Procedural Complications, percent of subjects” value ([2]; onset in study week 1) was “(2%)”. The “AE Investigations, number of subjects” value ([2]; onset in study week 1) was 1, the “AE Investigations, percent of subjects” value ([2]; onset in study week 1) was “(2%)” and the “AE Metabolism and Nutrition Disorders, number of subjects” value ([2]; onset in study week 1) was 1. The “AE Metabolism and Nutrition Disorders, percent of subjects” value ([2]; onset in study week 1) was “(2%)”.
